Molecules are shown by their SMILES.

For the assay, the system named is Aβ42 release. As to the kind of experiment: Aβ42 release from HEK cells stably expressing APPswe, Meso Scale Discovery electrochemiluminescence assay. Type of assay: cell-based. The note with it: Homo sapiens, HEK293; HEK cell line stably expressing APPswe; 4-6 h incubation with test compound; Aβ42 secreted to cell medium; read-out: pIC50 values of Aβ42 release (converted). On the procedure:
The level of activity of the compounds on Aβ formation was tested using the following method:
Compounds were diluted in 100% DMSO and stored at […] prior to use. Human Embryonic Kidney (HEK) cell line stably expressing APP with the Swedish mutation (APPswe) were cultured using Dulbecco's Modified Eagles medium (DMEM) supplied with […] glucose, Na-pyruvate and GlutaMAX with 10% FBS, 100 U/ml penicillin-streptomycin (PEST) respectively, 1×non-essential amino acids (NEAA), […], 100 μg/ml Zeocine. Cells at about 80% confluence were washed with PBS, detached from culture flasks using 1×Trypsin/EDTA diluted in PBS, re-suspended in cell media and plated in 384-well poly-d-lysine coated cell culture plates at about 10000-15000 cells/well, in 25 μL cell media. Optionally, cryo-preserved cells (frozen and stored at −140° C. in 90% cell media and 10% DMSO) were thawed, washed and plated as above. Next the cells were incubated for 15-24 h at 37° C. and 5% CO2, after which cell medium was changed. Fresh medium containing test compound diluted ×200 from prepared compound plate was added to the cells before further incubation for 4-6 hours at 37° C. and 5% CO2. After incubation with test compound the amount of Aβ peptides, including Aβ42, Aβ40, Aβ39, Aβ38 and Aβ37, secreted to cell medium was analyzed using the electrochemiluminescence assay technology from Meso Scale Discovery Technology, in combination with specific antibodies raised against the different Aβ peptides. Potential cytotoxic effects of the compounds were usually assayed by measuring the ATP content (ViaLight) from cell lysate.
For the molecule `COc1cc(Nc2ccc3c(n2)OC(c2cccc(C)n2)CN(C)C3)ccc1-n1cnc(C)n1` (stereo not drawn) [Example 52, N-(3-Methoxy-4-(3-methyl-1H-1,2,4-triazol-1-yl)phenyl)-4-methyl-2-(6-methylpyridin-2-yl)-2,3,4,5-tetrahydropyrido[3,2-f][1,4]oxazepin-8-amine], the IC50 was 0.398 µM.
For the molecule `COc1cc(Nc2ccc3c(n2)O[C@H](c2ccccc2)CN(CC#N)C3)ccc1-n1cnc(C)c1` [Example 47, (R)-2-(8-(3-Methoxy-4-(4-methyl-1H-imidazol-1-yl)phenylamino)-2-phenyl-2,3-dihydropyrido[3,2-f][1,4]oxazepin-4(5H)-yl)acetonitrile], the IC50 is 0.0158 µM.
Turning to `COc1nc(Nc2ccc3c(n2)O[C@H](c2ccccc2)CN(C(C)=O)C3)ccc1-n1cnc(C)c1` [Example 11, (R)-1-(8-(6-methoxy-5-(4-methyl-1H-imidazol-1-yl)pyridin-2-ylamino)-2-phenyl-2,3-dihydropyrido[3,2-f][1,4]oxazepin-4(5H)-yl)ethanone], the IC50 was 0.0158 µM.
For the molecule `COc1cc(Nc2ccc3c(n2)O[C@H](c2ccccc2)CN(CCO)C3)ccc1-n1cnc(C)n1` [Example 41, (R)-2-(8-(3-Methoxy-4-(3-methyl-1H-1,2,4-triazol-1-yl)phenylamino)-2-phenyl-2,3-dihydropyrido[3,2-f][1,4]oxazepin-4(5H)-yl)ethanol], the IC50 was 0.0398 µM.
As for `CN1CC(c2ccccc2)Oc2nc(Nc3ccc(-n4ccnc4)cc3)ccc2C1=O` (stereo not drawn) [Example 5, 8-(4-(1H-imidazol-1-yl)phenylamino)-4-methyl-2-phenyl-3,4-dihydropyrido[3,2-f][1,4]oxazepin-5(2H)-one], the figure is 1 µM; as for `Cc1cn(-c2ccc(Nc3ccc4c(n3)OC(c3ccccc3)CN(C)C4)cc2F)cn1` (stereo not drawn) [Example 16, N-(3-fluoro-4-(4-methyl-1H-imidazol-1-yl)phenyl)-4-methyl-2-phenyl-2,3,4,5-tetrahydropyrido[3,2-f][1,4]oxazepin-8-amine], 0.0794 µM; as for `COc1nc(Nc2ccc3c(n2)O[C@H](c2ccccc2)CNC3)ccc1-c1cnn(C)c1` [Example 56, (R)—N-(6-Methoxy-5-(1-methyl-1H-pyrazol-4-yl)pyridin-2-yl)-2-phenyl-2,3,4,5-tetrahydropyrido[3,2-f][1,4]oxazepin-8-amine], 0.01 µM.
`OCCN1Cc2ccc(Nc3ccc(-n4cncn4)c(Cl)c3)nc2O[C@H](c2ccccc2)C1` [Example 32, (R)-2-(8-(3-Chloro-4-(1H-1,2,4-triazol-1-yl)phenylamino)-2-phenyl-2,3-dihydropyrido[3,2-f][1,4]oxazepin-4(5H)-yl)ethanol]: the IC50 is 0.501 µM.
`Cc1nccn1-c1ccc(Nc2ccc3c(n2)OC(c2ccccc2)CN(C)C3)cn1` (stereo not drawn) [Example 23, 4-methyl-N-(6-(2-methyl-1H-imidazol-1-yl)pyridin-3-yl)-2-phenyl-2,3,4,5-tetrahydropyrido[3,2-f][1,4]oxazepin-8-amine]: the IC50 is 0.501 µM.
Take `Cn1cc(-c2ccc(Nc3ccc4c(n3)O[C@H](c3ccccc3)CNC4)nc2)cn1` [Example 57, (R)—N-(5-(1-Methyl-1H-pyrazol-4-yl)pyridin-2-yl)-2-phenyl-2,3,4,5-tetrahydropyrido[3,2-f][1,4]oxazepin-8-amine]: the IC50 was 0.126 µM.
The same measure for `COc1nc(Nc2ccc3c(n2)O[C@H](c2ccccc2)CN(C)C3)ccc1-n1cnc(C)c1` [Example 9, (R)—N-(6-methoxy-5-(4-methyl-1H-imidazol-1-yl)pyridin-2-yl)-4-methyl-2-phenyl-2,3,4,5-tetrahydropyrido[3,2-f][1,4]oxazepin-8-amine]: 0.00794 µM; for `COc1cc(Nc2ccc3c(n2)OC(c2ccccn2)CN(C)C3)ccc1-n1cnc(C)c1` (stereo not drawn) [Example 37, N-(3-Methoxy-4-(4-methyl-1H-imidazol-1-yl)phenyl)-4-methyl-2-(pyridin-2-yl)-2,3,4,5-tetrahydropyrido[3,2-f][1,4]oxazepin-8-amine]: 0.126 µM.
Regarding `COc1cc(Nc2ccc3c(n2)OC(c2ccccn2)CN(CC#N)C3)ccc1-n1cnc(C)c1` (stereo not drawn) [Example 36, 2-(8-(3-Methoxy-4-(4-methyl-1H-imidazol-1-yl)phenylamino)-2-(pyridin-2-yl)-2,3-dihydropyrido[3,2-f][1,4]oxazepin-4(5H)-yl)acetonitrile], the IC50 is 0.158 µM.
As for `OCCN1Cc2ccc(Nc3ccc(-c4nnc5n4CCC5)cc3)nc2O[C@H](c2ccccc2)C1` [Example 26, (R)-2-(8-(4-(6,7-Dihydro-5H-pyrrolo[2,1-c][1,2,4]triazol-3-yl)phenylamino)-2-phenyl-2,3-dihydropyrido[3,2-f][1,4]oxazepin-4(5H)-yl)ethanol], the figure is 20 µM.
`COc1cc(Nc2ncc3c(n2)O[C@H](c2ccccc2)CN(C)C3)ccc1-n1cnc(C)c1` [Example 13, (R)—N-(3-methoxy-4-(4-methyl-1H-imidazol-1-yl)phenyl)-6-methyl-8-phenyl-5,6,7,8-tetrahydropyrimido[5,4-f][1,4]oxazepin-2-amine]: the IC50 was 0.02 µM.
As for `Cc1ncn(-c2ccc(Nc3ccc4c(n3)O[C@H](c3ccccc3)CN(C)C4)cc2)n1` [Example 48, (R)-4-Methyl-N-(4-(3-methyl-1H-1,2,4-triazol-1-yl)phenyl)-2-phenyl-2,3,4,5-tetrahydropyrido[3,2-f][1,4]oxazepin-8-amine], the figure is 0.1 µM; as for `Cc1nccn1-c1ccc(Nc2ccc3c(n2)N(C2CCCC2)CCN(C)C3=O)cc1` [Example 25, 1-cyclopentyl-4-methyl-8-(4-(2-methyl-1H-imidazol-1-yl)phenylamino)-3,4-dihydro-1H-pyrido[2,3-e][1,4]diazepin-5(2H)-one], 5.01 µM.
With `COc1cc(Nc2ccc3c(n2)OC(c2ccccc2)CN(CC#N)C3)ccc1-n1cnc(C)c1` (stereo not drawn) [Example 14, 2-(8-(3-methoxy-4-(4-methyl-1H-imidazol-1-yl)phenylamino)-2-phenyl-2,3-dihydropyrido[3,2-f][1,4]oxazepin-4(5H)-yl)acetonitrile], the IC50 was 0.02 µM.
The same measure for `Cc1cc(C2CN(CC#N)Cc3ccc(Nc4ccc(-n5ccnc5C)cc4)nc3O2)n(C)n1` (stereo not drawn) [Example 27, 2-(2-(1,3-Dimethyl-1H-pyrazol-5-yl)-8-(4-(2-methyl-1H-imidazol-1-yl)phenylamino)-2,3-dihydropyrido[3,2-f][1,4]oxazepin-4(5H)-yl)acetonitrile]: 7.94 µM; for `Cc1cn(-c2ccc(Nc3ccc4c(n3)O[C@H](c3ccccc3)CN(CCO)C4)cc2)cn1` [Example 42, (R)-2-(8-(4-(4-Methyl-1H-imidazol-1-yl)phenylamino)-2-phenyl-2,3-dihydropyrido[3,2-f][1,4]oxazepin-4(5H)-yl)ethanol]: 0.0316 µM.
Take `Cc1nccn1-c1ccc(Nc2ccc3c(n2)OC(c2ccccc2)CN(C)C3=O)cc1` (stereo not drawn) [Example 2, 4-methyl-8-(4-(2-methyl-1H-imidazol-1-yl)phenylamino)-2-phenyl-3,4-dihydropyrido[3,2-f][1,4]oxazepin-5(2H)-one]: the IC50 is 1.26 µM.

These data come from patent US20100292210A1, “Novel Compounds for A-Beta-Related Pathologies” (AstraZeneca AB, priority 2009, published 2010).
